Experimental data: patent EP0781773A1, “NOVEL CARBAPENEM DERIVATIVE” (BANYU PHARMACEUTICAL CO., LTD., priority 1994, dated 1996)
Values after ≈ are worked out from the molar mass of the structure shown. Values joined by “and” are separate entries in the source; they are usually repeats but may differ in a detail not shown here. Equal values may be shown once.

How the values were obtained:
S.aureus CSa929 = experiment: Agar plate dilution method (MIC), media supplemented with 2 % sodium chloride; assay type: cell-based; conditions: Staphylococcus aureus, 35 °C, 48 hours, read-out: Minimum inhibitory Concentration (MIC)
Method: (§1) One platinum loopful (inoculum : 10^6CFU/ml) of each test microorganism cultured overnight in Mueller Hinton broth was inoculated into Mueller Hinton agars (MH agar). These media contained an antimicrobial agent in various concentrations. […] Accordingly, the minimum inhibitory concentrations of compounds of the invention were assayed. Table 1 The minimum inhibitory concentrations (MIC: µg/ml) of compounds of the invention were assayed according to the above agar plate dilution method using the media supplemented with 2 % sodium chloride as test media and using the culture conditions of 35 °C and 48 hours.

S.aureus MB5393 = experiment: as above; assay type: cell-based; conditions: Staphylococcus aureus, 35 °C, 48 hours, read-out: Minimum inhibitory Concentration (MIC)
Method: as §1

S.aureus BB5939 = experiment: In vitro antibacterial activity, agar plate dilution method (MIC); assay type: cell-based; conditions: Staphylococcus aureus; S.aureus BB5939 (β-lactamase-producing bacterium); MH agar, inoculum 10^6CFU/ml, 37 °C, 16 hours; read-out: Minimum inhibitory Concentration (MIC)
Method: (§2) One platinum loopful (inoculum : 10^6CFU/ml) of each test microorganism cultured overnight in Mueller Hinton broth was inoculated into Mueller Hinton agars (MH agar). These media contained an antimicrobial agent in various concentrations. Each test microorganism was cultured at 37 °C for 16 hours, and then the minimum inhibitory concentration (MIC: µg/ml) was assayed. Accordingly, the minimum inhibitory concentrations of compounds of the invention were assayed.

P.mirabilis MB4955 = experiment: as above; assay type: cell-based; conditions: Proteus mirabilis, MH agar, inoculum 10^6CFU/ml, 37 °C, 16 hours, read-out: Minimum inhibitory Concentration (MIC)
Method: as §2

S.aureus JS1 = experiment: as above; assay type: cell-based; conditions: Staphylococcus aureus, MH agar, inoculum 10^6CFU/ml, 37 °C, 16 hours, read-out: Minimum inhibitory Concentration (MIC)
Method: as §2

S.aureus MB4970 = experiment: as above; assay type: cell-based; conditions: Staphylococcus aureus, MH agar, inoculum 10^6CFU/ml, 37 °C, 16 hours, read-out: Minimum inhibitory Concentration (MIC)
Method: as §2

white rabbits = experiment: Renal toxicity test using white rabbits; assay type: in vivo; conditions: for Blood urea nitrogen before administration / Creatinine before administration: just before the administration (baseline)
Method: The compound of Example I-72 was made into a liquid with sterilized distilled water for injection so that the drug liquid concentration became 10 %, and intraperitoneally administered once in a dose of 225 mg/kg into 18-week-old male white rabbits from Japan (n=3 per each group). As for a control group, 0.9 % physiological saline was intraperitoneally administered once in the same manner as above. Serum urea nitrogen and creatinine were assayed just before the administration and about 48 hours after the administration. After the blood drawing, each rabbit was killed with leaving them alone under anesthetization and roughly observed, and then autopsy was carried out only on the kidney fixed with neutral 10 % formalin buffer. Each kidney preparation was prepared by a usual method, stained with hematoxylin and eosin and observed by a microscope.

ICR male mice = experiment: Acute toxicity in mice; assay type: in vivo; conditions: once into the tail vein, observed 5 days
Method: The compound of Example I-26 was used as a representative compound. The test compound was diluted with distilled water for injection so that the drug liquid concentration became 60.75 mg/ml, and administered once, in an administration rate of 10 to 20 µl/min, into the tail vein of each of 4-week-old ICR male mice, according to "Commentary on GLP Standard and Toxicity Test Method Guidline" (supervised by the Examination Section, Drug Secretariat, the Ministry of Welfare; Yakuji-Nippo Co.). The state of death and the general symptoms of mobility were observed over a period of 5 days after the administration.

SD rats = experiment: Toxicity test on the central nervous system in rats; conditions: 200 µg/rat into the lateral ventricle, n=5, observed for 30 minutes
From the text: A chronic guide cannula was inserted into the right lateral ventricle of each of 7-week-old male SD rats (n=5), and fixed by a dental range.

[1] = Mean, n=3, about 48 hours after 225 mg/kg intraperitoneally once
[2] = individual rabbit, about 48 hours after 225 mg/kg intraperitoneally once
[3] = individual rabbit, 225 mg/kg intraperitoneally once, 225 mg/kg

Compound	MIC (S.aureus BB5939) [µg/mL]	MIC (P.mirabilis MB4955) [µg/mL]	MIC (S.aureus JS1) [µg/mL]	MIC (S.aureus MB4970) [µg/mL]	further results
C[C@@H](O)[C@H]1C(=O)N2C(C(=O)O)=C(SC(=S)N3CCc4ccccc43)[C@H](C)[C@H]12 [Example I-51]					MIC (S.aureus CSa929): 0.39 µg/mL (≈ 0.964 µM); MIC (S.aureus MB5393): 0.39 µg/mL (≈ 0.964 µM)
C[C@@H](O)[C@H]1C(=O)N2C(C(=O)O)=C(SC(=S)N(C)C)[C@H](C)[C@H]12 [Example I-63]	1.56 (≈ 4.72 µM)	0.1 (≈ 0.303 µM)	0.2 (≈ 0.605 µM)	25 (≈ 75.7 µM)	
C[C@@H](O)[C@H]1C(=O)N2C(C(=O)O)=C(SC(=S)N(C)CCO)[C@H](C)[C@H]12 [Example I-72]	1.56 (≈ 4.33 µM)	0.05 (≈ 0.139 µM)	0.1 (≈ 0.277 µM)	0.025 (≈ 0.0694 µM)	Blood urea nitrogen after administration (white rabbits; [1]): 18.1 mg/dL; Creatinine after administration (white rabbits; [1]): 1.4 mg/dL; Blood urea nitrogen before administration (white rabbits; Mean, n=3): 17.4 mg/dL; Creatinine before administration (white rabbits; Mean, n=3): 1.3 mg/dL; Blood urea nitrogen after administration (white rabbits; [2]): 16.8 mg/dL and 16.6 mg/dL and 20.8 mg/dL; Creatinine after administration (white rabbits; [2]): 1.3 mg/dl (2×) and 1.5 mg/dl; Blood urea nitrogen before administration (white rabbits; [3]): 15.8 mg/dL and 16.8 mg/dL and 19.6 mg/dL; Creatinine before administration (white rabbits; [3]): 1.2 mg/dL and 1.3 mg/dL and 1.4 mg/dL; Opinion based on the autopsy (white rabbits; individual rabbit, kidney, about 48 hours after 225 mg/kg intraperitoneally once): no abnormality
CNCC(=O)N1CCN(C(=S)SC2=C(C(=O)O)N3C(=O)[C@H]([C@@H](C)O)[C@H]3[C@H]2C)CC1 [Example I-41]	0.39 (≈ 0.881 µM)	0.1 (≈ 0.226 µM)	0.1 (≈ 0.226 µM)	≤ 0.006	
C[C@@H](O)[C@H]1C(=O)N2C(C(=O)O)=C(SC(=S)N3CCCC(O)CC3)[C@H](C)[C@H]12 (stereo partly drawn) [Example I-26]	0.78 (≈ 1.95 µM)	0.05 (≈ 0.125 µM)	0.2 (≈ 0.499 µM)	0.012 (≈ 0.03 µM)	General symptoms of mobility (ICR male mice; 1000 mg/kg): No abnomality; Surviving number (ICR male mice; 1000 mg/kg): 2/2; General symptoms of mobility (ICR male mice; 1500 mg/kg): No abnomality; Surviving number (ICR male mice; 1500 mg/kg): 2/2; General symptoms of mobility (ICR male mice; 2000 mg/kg): No abnomality; Surviving number (ICR male mice; 2000 mg/kg): 1/1; Case of death (SD rats): 0/5

Continued, in another order:

MIC (S.aureus BB5939) [µg/mL]	MIC (P.mirabilis MB4955) [µg/mL]	MIC (S.aureus JS1) [µg/mL]	MIC (S.aureus MB4970) [µg/mL]	Compound	further results
0.39	0.2	0.1	≤ 0.006	C[C@@H](O)[C@H]1C(=O)N2C(C(=O)O)=C(SC(=S)N3Cc4ccc(C[N+]56CC[N+](CC(N)=O)(CC5)CC6)cc4C3)[C@H](C)[C@H]12 [Example III-2]	
0.39 (≈ 0.981 µM)	0.05 (≈ 0.126 µM)	0.1 (≈ 0.252 µM)	≤ 0.006	C[C@@H](O)[C@H]1C(=O)N2C(C(=O)O)=C(SC(=S)N3CC=C(CN)CC3)[C@H](C)[C@H]12 [Example IV-5]	
